Experimental data from patent US9820970B2, “Method and agent for the treatment and prophylaxis of diseases caused by (+)RNA-containing viruses” (OBSSCHESTVO S OGRANICHENNOI OTVETSTVENNOSTIYU …, priority 2012, dated 2017).
Where “and” joins values, the source holds several entries; their conditions need not be identical. Equal values may be shown once.

Legend:
dengue fever virus = test: Experimental form of dengue fever, virus proliferation in the blood of white mice; format: in vivo; settings: for Level of virus accumulation in the blood, lg PFU/ml: infected intracerebrally
Procedure: To determine antiviral activity, white mice were infected intracerebrally with a dengue fever virus. […] Infected animals were monitored for 21 days. Biological samples were evaluated on day 5 after infection.

[1] = system: West Nile virus strain Eg101; test: Experimental form of West Nile Fever in white mice; settings: for Protective ratio, % / Average lifetime / Extension of the average lifetime, Δ: 5 mg/kg orally; for Protective ratio, %: 10LD50 subcutaneously; for Average lifetime / Extension of the average lifetime, Δ: 10LD50
Procedure: In the experiment West Nile virus strain Eg101 was used. Infected animals were monitored for 21 days. Their death was controlled, and the average lifetime of the white mice were calculated in the experimental and control groups.
The main criteria of the in vivo effectiveness were the values of protection of the laboratory animals against death and the average lifetime of the animals in a group.

[2] = Adverse side effects during long-term administration; settings: long-term administration in therapeutic doses or doses greater by an order of magnitude
TBE virus strain Sof′ in = system: TBE virus strain Sof′ in; set-up: species or system white mice; settings: mouse, in vivo
[3] = system: human rhinovirus strain (HRV 1B); test: Antiviral activity against human rhinovirus on an in vivo experimental model (virus in mouse lungs); set-up: species or system mice; settings: for Infectious virus titer in lungs, lg, TCID50: orally once daily for 3 days from 12 h after infection; for Suppression of the virus reproduction (Δ lg): orally once daily for 3 days, vs normal saline
HCXV virus = test: Protective effectiveness against Coxsackie virus (HCXV) infection in mice; format: in vivo, white mice; settings: for Total mortality rate: 10LD50 intramuscularly
[4] = ribavirin, treatment scheme +24 h to +120 h
[5] = 20 mg/kg, treatment scheme +24 h to +120 h
[6] = 5 mg/kg orally, prevention scheme −96 h to −1 h
[7] = 5 mg/kg orally, treatment scheme +24 h to +168 h
[8] = 30/15 mg/kg, treatment scheme +24 h to +120 h
[9] = prevention scheme −96 h to −1 h
[10] = treatment scheme +24 h to +168 h
[11] = 30 mg/kg, single administration −144 h before infection
[12] = 0.3 mg/kg orally once daily for 5 days from 24 h after infection
[13] = 3 mg/kg orally once daily for 5 days from 24 h after infection
[14] = 30 mg/kg orally once daily for 5 days from 24 h after infection

## NC(=O)c1ncn([C@@H]2O[C@H](CO)[C@@H](O)[C@H]2O)n1 [Ribavirin, ribavirin, reference compound]
Dengue fever virus; [4]
  Degree of inhibition of the virus accumulation, %: 83.4%
  Reduction in the level of virus accumulation, lg: 1.0 lg
  Level of virus accumulation in the blood, lg PFU/ml: 6.4 lg PFU/ml
[1]; 20 mg/kg, prevention scheme
  Protection against death, % of animals: 50%
[1]; [5]
  Average lifetime of animals in a group: 7.2 days
  Extension of the average lifetime of animals in a group, Δ: 0.2 days
  Protection against death, %: 10.0%

## O=C(O)CCCC(=O)NCCc1c[nH]cn1 [Glutaryl histamine, glutaryl histamine]
Dengue fever virus; [6]
  Degree of inhibition of the virus accumulation, %: 95.5%
  Reduction in the level of virus accumulation, lg: 1.6 lg
Dengue fever virus; 5 mg/kg orally, prevention scheme −96 h to −1 h, day 5 after infection
  Level of virus accumulation in the blood, lg PFU/ml: 5.0 lg PFU/ml
Dengue fever virus; [7]
  Degree of inhibition of the virus accumulation, %: 98.6%
  Reduction in the level of virus accumulation, lg: 1.8 lg
Dengue fever virus; 5 mg/kg orally, treatment scheme +24 h to +168 h, day 5 after infection
  Level of virus accumulation in the blood, lg PFU/ml: 4.8 lg PFU/ml
Dengue fever virus; [8]
  Degree of inhibition of the virus accumulation, %: 99.6%
  Reduction in the level of virus accumulation, lg: 2.6 lg
  Level of virus accumulation in the blood, lg PFU/ml: 4.8 lg PFU/ml
[2]
  Adverse side effects: no adverse side effects have been registered
TBE virus strain Sof′ in
  Average lifetime: 15.1 days and 15.4 days and 13.6 days and 10.5 days and 10.1 days
  Extension of the average lifetime: 3.1 days and 3.2 days
  Extension of the average lifetime, Δ: 3.9 days and 2.4 days
  Protection against death, %: 30.0% and 40.0%
  Protective ratio, %: 40% and 35%
[3]; 15 mg/ml, 48 hrs
  Infectious virus titer in lungs, lg, TCID50: 2.8 ± 0.4 lg, TCID50
  Suppression of the virus reproduction (Δ lg): 1.3 Δ lg
[3]; 15 mg/ml, 72 hrs
  Infectious virus titer in lungs, lg, TCID50: 2.1 ± 0.3 lg, TCID50
  Suppression of the virus reproduction (Δ lg): 1.1 Δ lg
[3]; 30 mg/ml, 48 hrs
  Infectious virus titer in lungs, lg, TCID50: 1.5 ± 0.3 lg, TCID50
  Suppression of the virus reproduction (Δ lg): 2.6 Δ lg
[3]; 30 mg/ml, 72 hrs
  Infectious virus titer in lungs, lg, TCID50: 1.0 ± 0.3 lg, TCID50
  Suppression of the virus reproduction (Δ lg): 2.2 Δ lg
[1]; prevention scheme −96 h, −72 h, −48 h, −24 h, −1 h
  Protective ratio, %: 42.9%
[1]; [9]
  Average lifetime: 11.2 days
  Extension of the average lifetime, Δ: 4.2 days
[1]; [10]
  Average lifetime: 9.8 days
  Extension of the average lifetime, Δ: 2.8 days
  Protective ratio, %: 37.8%
[1]; [11]
  Average lifetime of animals in a group: 10.8 days
  Extension of the average lifetime of animals in a group, Δ: 3.7 days
  Protection against death, %: 40.0%
[1]; 30/15 mg/kg, treatment scheme +24 h, +48 h, +72 h, +96 h, +120 h
  Protection against death, %: 50.0%
[1]; [8]
  Average lifetime of animals in a group: 11.5 days
  Extension of the average lifetime of animals in a group, Δ: 4.5 days
[1]; 30/15 mg/kg, treatment scheme +24 h to +120 h, listed as glutaryl histamine
  Extension of the average lifetime of animals in a group, Δ: 3.5 days
HCXV virus; [12]
  Average lifetime, (%): 24.4%
  Extension of the days lifetime, Δ, days: +14.4 days
  Protective ratio, % average: 45.4%
  Total mortality rate: 42.9
HCXV virus; [13]
  Average lifetime, (%): 21.7%
  Extension of the days lifetime, Δ, days: +11.7 days
  Protective ratio, % average: 36.4%
  Total mortality rate: 50.0
HCXV virus; [14]
  Average lifetime, (%): 19.6%
  Extension of the days lifetime, Δ, days: +9.6 days
  Protective ratio, % average: 27.4%
  Total mortality rate: 57.1
